In brackets after ≈: the same amount, converted by molar mass. Read-outs that look alike come from different tables or passages of the source.
Legend:
Assay in all cases: in vitro antibacterial activity, standard agar dilution method
Format in all cases: cell-based
[1] = test system: Enterococcus faecalis NR 2943; conditions: NR2943, aerobic, read-out: minimum inhibitory concentration (MIC)
[2] = test system: Enterobacter cloacae NR 2946; conditions: NR2946, aerobic, read-out: minimum inhibitory concentration (MIC)
[3] = test system: Pseudomonas stutzeri IFO 12695; conditions: Stutzerimonas stutzeri, IFO12695, aerobic, read-out: minimum inhibitory concentration (MIC)
[4] = test system: Enterobacter aerogenes NR 2945; conditions: Klebsiella aerogenes, NR2945, aerobic, read-out: minimum inhibitory concentration (MIC)
[5] = test system: Bordetella bronchiseptica ATCC 4617; conditions: ATCC4617, aerobic, read-out: minimum inhibitory concentration (MIC)
[6] = test system: Pseudomonas aeruginosa A3; conditions: aerobic, read-out: minimum inhibitory concentration (MIC)
[7] = test system: Staphylococcus epidermidis IFO 12993; conditions: IFO12993, aerobic, read-out: minimum inhibitory concentration (MIC)
[8] = test system: Alcaligenes faecalis IFO 13111; conditions: IFO13111, aerobic, read-out: minimum inhibitory concentration (MIC)
[9] = test system: Proteus vulgaris OX19 ATCC 6898; conditions: ATCC6898, aerobic, read-out: minimum inhibitory concentration (MIC)
Escherichia coli NR 2630 = conditions: NR2630; Escherichia coli NR 2630; aerobic; agar dilution; read-out: minimum inhibitory concentration (MIC)
[10] = test system: Pseudomonas aeruginosa NR 2950; conditions: NR2950, aerobic, read-out: minimum inhibitory concentration (MIC)
[11] = test system: Staphylococcus aureus FDA 209P JC-1; conditions: FDA209P, read-out: minimum inhibitory concentration (MIC)
[12] = test system: Staphylococcus aureus NR 2855
[13] = test system: Proteus rettgeri ATCC 14505; conditions: Providencia rettgeri, ATCC14505, aerobic, read-out: minimum inhibitory concentration (MIC)
[14] = test system: Staphylococcus epidermidis NR 2942; conditions: NR2942, aerobic, read-out: minimum inhibitory concentration (MIC)
[15] = test system: Serratia marcescens IFO 12648; conditions: IFO12648, aerobic, read-out: minimum inhibitory concentration (MIC)
[16] = test system: Citrobacter freundii IFO 12681; conditions: IFO12681, aerobic, read-out: minimum inhibitory concentration (MIC)
[17] = test system: Staphylococcus aureus Smith; conditions: read-out: minimum inhibitory concentration (MIC)
[18] = test system: Escherichia coli NIHJ JC-2; conditions: NIHJJC2, aerobic, read-out: minimum inhibitory concentration (MIC)
[19] = test system: Bacillus subtilis PCI 219; conditions: PCI219, aerobic, read-out: minimum inhibitory concentration (MIC)
[20] = test system: Salmonella typhimurium IFO 12529; conditions: Salmonella enterica, aerobic, read-out: minimum inhibitory concentration (MIC)
[21] = test system: Klebsiella pneumoniae FDA PCI 602; conditions: FDAPCI602, aerobic, read-out: minimum inhibitory concentration (MIC)
[22] = Staphylococcus aureus FDA 209P JC-1, aerobic, agar dilution
[23] = NR2855, Staphylococcus aureus NR 2855, aerobic, agar dilution, read-out: minimum inhibitory concentration (MIC)
[24] = Staphylococcus aureus Smith, aerobic, agar dilution
[25] = Staphylococcus aureus, NR2855, read-out: minimum inhibitory concentration (MIC)

Row | Compound | MIC [1] | MIC [2] | MIC [3] | MIC [4] | MIC [5] | MIC [6] | MIC [7] | MIC [8] | MIC [9] | MIC (Escherichia coli NR 2630) | MIC [10] | MIC [13] | MIC [14] | MIC [15] | MIC [16] | MIC [17, 24] | MIC [18] | MIC [19] | MIC [20] | MIC [21] | other results
1 | CNC1CCN(c2c(F)cc3c(=O)c(C(=O)O)cn4c3c2OCN4C)C1 (centres unmarked) [Example 31] | 12.5 µg/mL (≈ 34.5 µM) | 0.05 µg/mL (≈ 0.138 µM) | 0.025 µg/mL (≈ 0.069 µM) | 0.025 µg/mL (≈ 0.069 µM) | 3.13 µg/mL (≈ 8.64 µM) | 0.2 µg/mL (≈ 0.552 µM) | 0.39 µg/mL (≈ 1.08 µM) | 3.13 µg/mL (≈ 8.64 µM) | 0.025 µg/mL (≈ 0.069 µM) | 0.025 µg/mL (≈ 0.069 µM) | 1.56 µg/mL (≈ 4.31 µM) | 0.39 µg/mL (≈ 1.08 µM) | 0.39 µg/mL (≈ 1.08 µM) | 0.2 µg/mL (≈ 0.552 µM) | 0.05 µg/mL (≈ 0.138 µM) | 0.2 µg/mL (≈ 0.552 µM) | 0.05 µg/mL (≈ 0.138 µM) | 0.05 µg/mL (≈ 0.138 µM) | 0.025 µg/mL (≈ 0.069 µM) | 0.2 µg/mL (≈ 0.552 µM) | MIC [11, 22]: 0.39 µg/mL (≈ 1.08 µM); MIC [12, 23]: 0.78 µg/mL (≈ 2.15 µM)
2 | CC(=O)NCC1CCN(c2c(F)cc3c(=O)c(C(=O)O)cn4c3c2OCN4C)C1 (centres unmarked) [Example 19, 10-[3-(acetylaminomethyl)-1-pyrrolidinyl]-9-fluoro-3-methyl-7-oxo-2,3-dihydro-7H-pyrido[3,2,1-ij]-1,3,4-benzoxadiazine-6-carboxylic acid] | 6.25 µg/mL (≈ 15.5 µM) | 1.56 µg/mL (≈ 3.86 µM) | 0.39 µg/mL (≈ 0.964 µM) | 1.56 µg/mL (≈ 3.86 µM) | 6.25 µg/mL (≈ 15.5 µM) | 6.25 µg/mL (≈ 15.5 µM) | 0.39 µg/mL (≈ 0.964 µM) | 6.25 µg/mL (≈ 15.5 µM) | 0.39 µg/mL (≈ 0.964 µM) | 0.39 µg/mL (≈ 0.964 µM) | 25 µg/mL (≈ 61.8 µM) | 3.13 µg/mL (≈ 7.74 µM) | 0.39 µg/mL (≈ 0.964 µM) | 3.13 µg/mL (≈ 7.74 µM) | 1.56 µg/mL (≈ 3.86 µM) | 0.2 µg/mL (≈ 0.495 µM) | 1.56 µg/mL (≈ 3.86 µM) | 0.05 µg/mL (≈ 0.124 µM) | 1.56 µg/mL (≈ 3.86 µM) | 6.25 µg/mL (≈ 15.5 µM) | MIC ([11]; Staphylococcus aureus): 0.39 µg/mL (≈ 0.964 µM); MIC [12, 25]: 0.39 µg/mL (≈ 0.964 µM)
3 | CN1COc2c(N3CCN(CS(=O)(=O)O)CC3)c(F)cc3c(=O)c(C(=O)O)cn1c23 [Example 52, disodium 9-fluoro-3-methyl-7-oxo-10-[4-(sulfonatomethyl)-1-piperazinyl]-2,3-dihydro-7H-pyrido-[3,2,1-ij]-1,3,4-benzoxadiazine-6-carboxylate] | 25 µg/mL | 0.05 µg/mL | 0.05 µg/mL | 0.025 µg/mL | 6.25 µg/mL | 0.2 µg/mL | 1.56 µg/mL | 12.5 µg/mL | 0.025 µg/mL | 0.025 µg/mL | 1.56 µg/mL | 0.2 µg/mL | 1.56 µg/mL | 0.2 µg/mL | 0.025 µg/mL |  | 0.05 µg/mL | 0.2 µg/mL | 0.025 µg/mL | 0.2 µg/mL | MIC ([11]; Staphylococcus aureus): 0.39 µg/mL; MIC [12, 23]: 3.13 µg/mL; MIC ([17]; Staphylococcus aureus): 0.39 µg/mL
4 | CCNC1CCN(c2c(F)cc3c(=O)c(C(=O)O)cn4c3c2OCN4C)C1 (centres unmarked) [Example 32] | 6.25 µg/mL (≈ 16.6 µM) | 0.1 µg/mL (≈ 0.266 µM) | 0.1 µg/mL (≈ 0.266 µM) | 0.025 µg/mL (≈ 0.0664 µM) | 1.56 µg/mL (≈ 4.14 µM) | 0.39 µg/mL (≈ 1.04 µM) | 0.39 µg/mL (≈ 1.04 µM) | 1.56 µg/mL (≈ 4.14 µM) | 0.025 µg/mL (≈ 0.0664 µM) | 0.025 µg/mL (≈ 0.0664 µM) | 3.13 µg/mL (≈ 8.32 µM) | 1.56 µg/mL (≈ 4.14 µM) | 0.39 µg/mL (≈ 1.04 µM) | 0.39 µg/mL (≈ 1.04 µM) | 0.1 µg/mL (≈ 0.266 µM) | 0.1 µg/mL (≈ 0.266 µM) | 0.1 µg/mL (≈ 0.266 µM) | 0.05 µg/mL (≈ 0.133 µM) | 0.025 µg/mL (≈ 0.0664 µM) | 0.39 µg/mL (≈ 1.04 µM) | MIC [11, 22]: 0.2 µg/mL (≈ 0.531 µM); MIC [12, 23]: 0.39 µg/mL (≈ 1.04 µM)
5 | CCN(C)CC1CCN(c2c(F)cc3c(=O)c(C(=O)O)cn4c3c2OCN4C)C1 (centres unmarked) [Example 48, 10-[3-[(ethylmethylamino)methyl]-1-pyrrolidinyl]-9-fluoro-3-methyl-7-oxo-2,3-dihydro-7H-pyrido-[3,2,1-ij]-1,3,4-benzoxadiazine-6-carboxylic acid] | 6.25 µg/mL (≈ 15.5 µM) | 0.39 µg/mL (≈ 0.964 µM) | 1.56 µg/mL (≈ 3.86 µM) | 0.39 µg/mL (≈ 0.964 µM) | 6.25 µg/mL (≈ 15.5 µM) | 3.13 µg/mL (≈ 7.74 µM) | 0.39 µg/mL (≈ 0.964 µM) | 3.13 µg/mL (≈ 7.74 µM) | 0.39 µg/mL (≈ 0.964 µM) | 0.1 µg/mL (≈ 0.247 µM) | 50 µg/mL (≈ 124 µM) | 3.13 µg/mL (≈ 7.74 µM) | 0.78 µg/mL (≈ 1.93 µM) | 1.56 µg/mL (≈ 3.86 µM) | 0.39 µg/mL (≈ 0.964 µM) | 0.2 µg/mL (≈ 0.495 µM) | 0.39 µg/mL (≈ 0.964 µM) | 0.05 µg/mL (≈ 0.124 µM) | 0.39 µg/mL (≈ 0.964 µM) | 1.56 µg/mL (≈ 3.86 µM) | MIC ([11]; Staphylococcus aureus): 0.39 µg/mL (≈ 0.964 µM); MIC [12, 25]: 0.39 µg/mL (≈ 0.964 µM)
